pEC50: −log10 of the molar value.
How the values were obtained:
[1] = biological target: T1, human cloned CHRM4 receptor (Homo sapiens, UniProt P08173); assay: CHRM4 Ca++ Flux Assay (M4_CHO cells, agonist mode); type: cell-based; conditions: for M4 FDSS PA % / Emax: Percent Activity (PA); for pEC50: geometric mean if tested more than once, read-out: M4 FDSS EC50; for Emax: read-out: M4 FDSS PA %
T1 construct: expressed in transfected cells; host or cells: CHO-K1 (M4_CHO)
T1 sequence (P08173 1-479): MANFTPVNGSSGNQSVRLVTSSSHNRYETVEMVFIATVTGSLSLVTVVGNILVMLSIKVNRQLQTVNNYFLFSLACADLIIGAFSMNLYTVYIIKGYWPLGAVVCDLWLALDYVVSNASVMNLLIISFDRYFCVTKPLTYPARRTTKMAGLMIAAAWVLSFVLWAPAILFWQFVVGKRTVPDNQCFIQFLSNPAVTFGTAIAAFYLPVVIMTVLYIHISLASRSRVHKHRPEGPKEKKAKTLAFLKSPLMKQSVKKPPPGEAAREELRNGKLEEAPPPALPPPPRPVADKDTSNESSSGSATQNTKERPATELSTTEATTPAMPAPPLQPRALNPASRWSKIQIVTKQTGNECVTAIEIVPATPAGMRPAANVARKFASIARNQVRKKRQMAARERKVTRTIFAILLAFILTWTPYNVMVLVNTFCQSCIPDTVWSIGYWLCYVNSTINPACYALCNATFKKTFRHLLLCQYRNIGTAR
Outline: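 Agonist-mode calcium flux in an M4-expressing CHO-K1 line: compounds were dosed at 11 points in triplicate and fluorescence was tracked for 3 min. Cells were preloaded with Ca++ dye and kept in −Ca/−Mg HBSS with 20 μM ATP for 60 min. Efficacy is scaled to carbachol EC100; EC50s come from four-parameter regression, geometric mean across runs.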

[2] = biological target: T2, Cloned human M1 receptor (CHRM1) (Homo sapiens, UniProt P11229); assay: CHRM1 Ca++ Flux Assay (HEK293 M1 cells, agonist mode); type: cell-based; conditions: for M1 FDSS PA % / Emax: Percent Activity (PA); for pEC50: geometric mean if tested more than once, read-out: M1 FDSS EC50; for Emax: read-out: M1 FDSS PA %
T2 construct: expressed in transfected cells; host or cells: HEK293
T2 sequence (P11229 1-460): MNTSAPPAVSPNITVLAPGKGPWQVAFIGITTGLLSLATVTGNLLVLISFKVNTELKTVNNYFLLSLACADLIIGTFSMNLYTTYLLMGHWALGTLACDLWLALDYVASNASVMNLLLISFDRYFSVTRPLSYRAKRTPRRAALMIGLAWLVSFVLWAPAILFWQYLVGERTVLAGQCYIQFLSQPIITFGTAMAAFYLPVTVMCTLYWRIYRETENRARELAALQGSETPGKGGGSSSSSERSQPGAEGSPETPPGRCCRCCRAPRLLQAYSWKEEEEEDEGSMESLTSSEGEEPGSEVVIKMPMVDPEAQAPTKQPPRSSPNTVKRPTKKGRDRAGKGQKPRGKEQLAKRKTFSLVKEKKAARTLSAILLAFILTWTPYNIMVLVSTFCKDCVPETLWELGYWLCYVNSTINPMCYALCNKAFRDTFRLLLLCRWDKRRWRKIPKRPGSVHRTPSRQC
Outline: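 In agonist mode, compound-induced intracellular Ca++ mobilization was recorded for 3 min by fluorescent imager. The cells were HEK293 stably expressing cloned human CHRM1, in Ca/Mg-free HBSS with 20 mM HEPES. Triplicate 11-point dose-responses were fitted by four-parameter regression and normalized to the carbachol EC100 response.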

Row | pEC50 [1] | pEC50 [2] | Emax [1] [%] | Emax [2] [%] | Compound | M4 FDSS PA % [1] [%] | M1 FDSS PA % [2] [%]
1 | 7.15 | 6.10 | 74 | 78 | Fc1ccc(O[C@H]2CCOC2)c(C2CCN([C@@H]3COC4(C3)CN(c3nncs3)C4)CC2)c1 [Example 5O, (S)-7-(4-(5-fluoro-2-(((S)-tetrahydrofuran-3-yl)oxy)phenyl)piperidin-1-yl)-2-(1,3,4-thiadiazol-2-yl)-5-oxa-2-azaspiro[3.4]octane] |  | 
2 | 7.54 | 5.92 | 92 | 6 | Fc1ccc(OC2CCOCC2)c(C2CCN([C@@H]3COC4(C3)CN(c3nncs3)C4)CC2)c1 [Example 5J, (S)-7-(4-(5-fluoro-2-((tetrahydro-2H-pyran-4-yl)oxy)phenyl)piperidin-1-yl)-2-(1,3,4-thiadiazol-2-yl)-5-oxa-2-azaspiro[3.4]octane] |  | 
3 | 6.71 | 6.12 | 69 | 87 | COCCOc1ccc(F)cc1C1CCN([C@@H]2COC3(C2)CN(c2nncs2)C3)CC1 [Example 5S, (S)-7-(4-(5-fluoro-2-(2-methoxyethoxy)phenyl)piperidin-1-yl)-2-(1,3,4-thiadiazol-2-yl)-5-oxa-2-azaspiro[3.4]octane] |  | 
4 | 6.96 | 5.80 | 66 | 60 | CC(C)(O)COc1ccc(F)cc1C1CCN([C@@H]2COC3(C2)CN(c2ncns2)C3)CC1 [Example 5C, (S)-1-(2-(1-(2-(1,2,4-thiadiazol-5-yl)-5-oxa-2-azaspiro[3.4]octan-7-yl)piperidin-4-yl)-4-fluorophenoxy)-2-methylpropan-2-ol] |  | 
5 | 7.34 | 5.70 | 82 | 72 | c1ccc(C2CCN([C@@H]3COC4(C3)CN(c3ncco3)C4)CC2)c(C2CCOCC2)c1 [Example 4V, (S)-2-(oxazol-2-yl)-7-(4-(2-(tetrahydro-2H-pyran-4-yl)phenyl)piperidin-1-yl)-5-oxa-2-azaspiro[3.4]octane] |  | 
6 | 7.42 | 5.48 |  |  | O[C@H]1CC[C@@H](c2ccc(F)cc2C2CCN([C@@H]3COC4(C3)CN(c3nnco3)C4)CC2)CC1 (single isomer, unassigned) [Example 3I, (1R,4s)-4-(2-(1-((S)-2-(1,3,4-oxadiazol-2-yl)-5-oxa-2-azaspiro[3.4]octan-7-yl)piperidin-4-yl)-4-fluorophenyl)cyclohexan-1-ol or (1S,4r)-4-(2-(1-((S)-2-(1,3,4-oxadiazol-2-yl)-5-oxa-2-azaspiro[3.4]octan-7-yl)piperidin-4-yl)-4-fluorophenyl)cyclohexan-1-ol] | 91.2 | 76
7 | 7.42 | 6.43 | 79 | 88 | Fc1ccc(OC[C@@H]2COCCO2)c(C2CCN([C@@H]3COC4(C3)CN(c3nncs3)C4)CC2)c1 [Example 5L, (S)-7-(4-(2-(((S)-1,4-dioxan-2-yl)methoxy)-5-fluorophenyl)piperidin-1-yl)-2-(1,3,4-thiadiazol-2-yl)-5-oxa-2-azaspiro[3.4]octane] |  | 
8 | 7.82 | 6.27 | 80 | 90 | c1ccc(C2CCN([C@@H]3COC4(C3)CN(c3ncco3)C4)CC2)c(O[C@@H]2CCOC2)c1 [Example 4F, (S)-2-(oxazol-2-yl)-7-(4-(2-(((R)-tetrahydrofuran-3-yl)oxy)phenyl)piperidin-1-yl)-5-oxa-2-azaspiro[3.4]octane] |  | 
9 | 7.44 | 6.24 | 78 | 72 | Fc1ccc(OC[C@H]2COCCO2)c(C2CCN([C@@H]3COC4(C3)CN(c3nnco3)C4)CC2)c1 [Example 1C] |  | 

Row | Compound | pEC50 [1] | pEC50 [2] | Emax [1] [%] | Emax [2] [%] | M4 FDSS PA % [1] [%] | M1 FDSS PA % [2] [%]
10 | Fc1ccc([C@H]2CCOC2)c(C2CCN([C@@H]3COC4(C3)CN(c3nnco3)C4)CC2)c1 (single isomer, unassigned) [Example 3F, (S)-7-(4-(5-fluoro-2-((R)-tetrahydrofuran-3-yl)phenyl)piperidin-1-yl)-2-(1,3,4-oxadiazol-2-yl)-5-oxa-2-azaspiro[3.4]octane or (S)-7-(4-(5-fluoro-2-((S)-tetrahydrofuran-3-yl)phenyl)piperidin-1-yl)-2-(1,3,4-oxadiazol-2-yl)-5-oxa-2-azaspiro[3.4]octane] | 7.64 | 6.23 |  |  | 80 | 86
11 | c1ccc([C@@H]2CCOC2)c(C2CCN([C@@H]3COC4(C3)CN(c3nnco3)C4)CC2)c1 (single isomer, unassigned) [Example 3A, (S)-2-(1,3,4-oxadiazol-2-yl)-7-(4-(2-((S)-tetrahydrofuran-3-yl)phenyl)piperidin-1-yl)-5-oxa-2-azaspiro[3.4]octane or (S)-2-(1,3,4-oxadiazol-2-yl)-7-(4-(2-((R)-tetrahydrofuran-3-yl)phenyl)piperidin-1-yl)-5-oxa-2-azaspiro[3.4]octane] | 7.08 | 5.95 |  |  | 91 | 85

Source: US11485742B2, “2-azaspiro[3.4]octane derivatives as M4 agonists” (NOVARTIS AG, priority 2019, dated 2022)
